# Measurements published in patent US10745370B2, “Farnesyl transferase inhibitors and uses thereof” (MACKAY MEMORIAL HOSPITAL, priority 2016, dated 2020).
# Values joined by “and” are separate entries in the source; they are usually repeats but may differ in a detail not shown here. Equal values may be shown once. “Also recorded” adds a separate entry of the source.
# Key:
# M1 macrophages [1] = experiment: Differentiation analysis, cell viability of M1 macrophages; format: cell-based, human
# Method: (§1) M1 differentiation of freshly isolated CD14^+ cells was induced by the addition of lipopolysaccharide (LPS), while M2 differentiation of freshly isolated CD14^+ cells was induced by the addition of IL-4. Then, the present compounds (e.g., Mib-5, 6, 7, 8, 9, or 10) were added at the indicated dosages. 6 days later, the population of the differentiated macrophages were then determined by cell viability analysis. The cell viability was measured by cell counting kit-8 (CCK-8, Sigma). The half maximal inhibitory concentrations (IC50) of the test compounds on macrophages or dendritic cells were calculated.
# rat PFTase = target: T1, rat PFTase (Rattus norvegicus, UniProt Q02293+Q04631); experiment: Inhibition of farnesyl transferase (fluorescence assay); format: biochemical; settings: mean ± SD of three independent experiments
# T1 construct: purchased Jena Biosciences
# Method: The assay was carried out in 384-well microplates with a final volume of 20 μl by the method modified from the previous report (Long et al., 2009). Briefly, 10 nM of rat PFTase (Jena Biosciences, Jena, Germany) was incubated with the tested compound or DMSO (1%) for 15 min, and then the mixture was added in a solution (50 mM Tris-HCl, pH 7.5, 5 mM MgCl2, 5 mM DTT, 0.1 mM ZnCl2, 0.2% octyl-β-D-glucopyranoside (Sigma, St. Louis, Mo.), 10 μM PFTase substrate dansyl-Gly-Cys-Val-Leu-Ser-OH, and 10 μM farnesyl pyrophosphate (Sigma, St. Louis, Mo.)) to initiate the reaction. The reaction was incubated at 37° C. for 30 min, and the fluorescence was detected by a M5 plate reader (Molecular Devices, CA, USA) at 340 nm excitation and 505 nm emission.
# M1 macrophages [2] = experiment: Cell marker expression on M1 macrophages, flow cytometry; format: cell-based, human
# Method: (§2) M1 differentiation of freshly isolated CD14^+ cells was induced by the addition of lipopolysaccharide (LPS), while M2 differentiation of freshly isolated CD14^+ cells was induced by the addition of IL-4. Then, the present compounds (e.g., Mib-5, 6, 7, 8, 9, or 10) were added at the indicated dosages. 6 days later, the population of the differentiated macrophages were then determined by cell viability analysis.
# (§3) The expression of various types of cell markers, such as CD14, CD206, and CD80 expressed on the surface of macrophages, and CD1a, CD14, CD83, and HLA-DR expressed on the dendritic cells, were respectively detected by fluorescein isothiocyanate (FITC) and phycoerythrin (PE)-conjugated monoclonal antibodies in FACS caliber flowcytometer. Monoclonal antibodies used in this examples included anti-CD14 (IgG-FITC), anti-CD206 (IgG-FITC), anti-CD80-PE, anti-CD1a-PE, anti-CD83-PE and anti-human leukocyte antigen (HLA)-DR-PE. Results were analyzed by CellQuest software.
# dendritic cells [3] = experiment: Trypan blue exclusion analysis of dendritic cells; format: cell-based, human; settings: 10 μM, seven days, FIG. 7
# Method: (§4) Mononuclear cells (MNCs) were separated from the peripheral blood of healthy donors obtained with written consent by use of Ficoll-Hypaque density centrifugation, followed by positive selection with magnetic anti-CD14 microbeads.
# (§5) The isolated CD14^+ cells were cultivated in Minimum Essential Medium (MEM medium) supplemented with 10% fetal bovine serum (FBS), 100 ng/ml granulocyte-macrophage colony-stimulating factor (GM-CSF, Gentaur), and 50 ng/ml interleukin-4 (IL-4, R&D), and kept in an environment of 37° C. with 5% CO2/95% air.
# (§6) To evaluate the effects of the present compound on dendritic cells, the CD14^+ cells were respectively treated with 10 μM of test compound (i.e., Mib-5, Mib-6, Mib-7, Mib-8, Mib-9, and Mib-10) on day 1. Then, on day 3, the cultured medium in each well was replenished by adding half the volume of the cultured medium containing the same treatment as indicated above. Then, on day 6, a cytokine cocktail containing IL-1, IL-6, and tumor necrosis factor-α (TNF-α) was added to induce maturation. On day 7, the differentiated dendritic cells were collected and subjected to further assays, including viability assay, morphology observation, and cell marker staining.
# (§7) The dye exclusion test is used to determine the number of viable cells present in a cell suspension. […] In this test, the cells were first treated with a test compound (i.e., Mib-5, 6, 7, 8, 9 or 10) for a certain period of time (e.g., 72 hours), then the cells were harvested and re-suspended in suitable buffer solution. The cell suspension was then mixed with trypan blue dye and then visually examined to determine whether cells had taken up or excluded the dye. A viable cell will have a clear cytoplasm, whereas a nonviable cell will have a blue cytoplasm. The concentration required to reduce viability by 50% (IC50) after 72 hours was extrapolated from the dose-response curves by different concentrations of the test compound using a second-order polynomial regression model and analyzing with SigmaPlot Software (Systat Software Inc., San Jose, Calif.).
# (§8) In this example, the effects of the present compounds on dendritic cells were investigated. Briefly, the dendritic cells were respectively treated with 10 μM of Mib-5, Mib-6, Mib-7, Mib-8, or Mib-10. Seven days later, the cells were harvested and subjected to analysis of morphology observation, cell viability, and/or cell marker expression.
# M2 macrophages [4] = experiment: Differentiation analysis, cell viability of M2 macrophages; format: cell-based, human
# Method: as §1
# macrophages [5] = experiment: Trypan blue exclusion test on macrophages; format: cell-based; settings: trypan blue analysis, FIG. 2
# Method: as §4, §5, §6
# (§9) As to the effects of the present compound on macrophages, the CD14^+ cells were cultivated and treated as indicated above except the addition of cytokine cocktail on day 6. The macrophages were collected on day 6 and subjected to further assays, including viability assay, trypan blue exclusion test, morphology observation, cell marker staining, and phagocytotic activity analysis.
# as §7
# M2 macrophages [6] = experiment: Cell marker expression on M2 macrophages, flow cytometry; format: cell-based, human
# Method: as §2, §3
# macrophages [7] = experiment: Phagocytosis assay with fluorescent latex beads; format: cell-based, human; settings: M1 and/or M2 populations, FIG. 6
# Method: as §9
# The phagocytic activity of macrophages was measured by using flow cytometric analysis. The green fluorescent latex beads (carboxylate-modified beads with diameter 2 μm) were suspended in PBS solution and added into macrophage culture for 2 hours with vortexa at 37° C. The macrophages were subjected to flow cytometry for measurement of fluorescent intensity
# dendritic cells [8] = experiment: Morphology of dendritic cells by Liu's staining; format: cell-based, human; settings: 10 μM, seven days, FIG. 8
# Method: as §4, §5, §6
# (§10) Cells were transferred to a glass coverslide and covered with solution A (0.5 g of methylene blue and 1.7 g of Eosin yellow dissolved in 1,000 ml of ethanol). After 45 seconds, solution B (1.3 g of azure, 1.4 g of methylene blue, 23.38 g of Na2HPO4, 6.5 g of KH2PO4, dissolved in 1,000 ml of distilled water) was added in the proportion of 2 parts of B to 1 part of A. Mixed the solutions well by blowing the surface. The slide was left standing for 90 seconds and then washed off the staining solution rapidly by running water. The morphology of stained cells was then examined under microscope.
# as §8
# dendritic cells [9] = experiment: Cell marker expression on dendritic cells, flow cytometry; format: cell-based, human; settings: 10 μM
# Method: as §4, §5, §6, §3, §8
# macrophages [10] = experiment: Cell marker expression on macrophages (total), flow cytometry; format: cell-based, human
# Method: as §4, §5, §6, §9, §3
# macrophages [11] = experiment: Morphology of macrophages (photographs, Liu's staining); format: cell-based, human
# Method: as §4, §5, §6, §9, §10
compound,measurement,setting,value
COC1=CC(=O)[C@@]2(c3cc(=O)c4ccc(O)cc4o3)[C@H](CC=C(C)[C@@H]2C[C@]2(C)[C@@H](C(=O)O)CC=C3[C@H]2CCCC3(C)C)C1=O [Mib-10],Cell viability of M1 macrophages,"M1 macrophages [1]; LPS-induced M1 differentiation, 6 days, control 100%",82.5%
same,change in M1 population of macrophages compared with control,M1 macrophages [1]; Table 4,decrease
same,IC50,rat PFTase,~28 µM and 27.9 µM
same,CD14: M1 population after treatment,M1 macrophages [2]; Table 5,remained relatively unchanged
same,CD206 expression on M1 macrophages,M1 macrophages [2]; control 14.27%,15.17%
same,CD80 expression on M1 macrophages,M1 macrophages [2]; control 71.34%,84.46%
same,CD14 expression on M1 macrophages,M1 macrophages [2]; control 99.83%,99.10%
same,levels of viable dendritic cells,dendritic cells [3],remained relatively unchanged
same,Cell viability of M2 macrophages,"M2 macrophages [4]; IL-4-induced M2 differentiation, 6 days, control 100%",145.5%
same,increase of M2 population,"M2 macrophages [4]; compared with control, Table 4",about 40%
same,cell viability / cytotoxicity toward macrophages,macrophages [5],did not adversely affect cell viability; also recorded: no significant cytotoxicity
same,CD14: M2 population after treatment,M2 macrophages [6]; Table 5,significant decrease
same,CD80: change in M2 population,M2 macrophages [6]; Table 6,increase
same,CD80 expression on M2 macrophages,M2 macrophages [6]; control 47.64%,59.89%
same,CD14 expression on M2 macrophages,M2 macrophages [6]; control 55.66%,57.93%
same,CD206 expression on M2 macrophages,M2 macrophages [6]; control 74.49%,68.80%
same,phagocytic activity compared with control,macrophages [7],reduced
same,dendritic cell morphology compared with control group,dendritic cells [8],did not cause any significant changes
same,"expression of CD1a, differentiation marker of dendritic cells",dendritic cells [9]; FIG. 9,not
same,"expression of CD83, maturation marker of dendritic cells",dendritic cells [9]; FIG. 10,not affected
same,increase of total level of CD80 as compared with the control,macrophages [10],about 2 folds
same,total expressed level of CD14,macrophages [10]; FIG. 3,not affected
same,level of CD206,macrophages [10]; FIG. 5,increase
same,total level of CD80,macrophages [10]; compared with the control,increased
same,cells exhibiting adhesive morphology,"macrophages [11]; 10 μM, FIG. 1 panel A",about 20%
same,morphology of cells by Liu's staining compared with control cells,macrophages [11]; FIG. 1 panel C,not significantly affected
